The target in series [1] is T1, uPA (Homo sapiens, UniProt P00749). The note with it: literature; cited from earlier work.
A further series deals with factor Xa. The note with it: literature; cited from earlier work.
For the next series, the target named is tPA (Homo sapiens, UniProt P00750). To be noted: literature; cited from earlier work.
Series [2] has as its system murine lung carcinoma model. To be noted: literature; cited from earlier work.
Another series relates to thrombin. To be noted: literature; cited from earlier work.
A further series addresses plasma kallikrein (Homo sapiens, UniProt P03952). To be noted: literature; cited from earlier work.
Series [3] has as its target T1, uPA. Description: Activity determination of chemically synthesized inhibitors, residual protease activity. It is filed as biochemical. Set-up: human uPA (UPA-LMW, from human urine, 33 kDa); purchased Molecular Innovations, Novi, MI, USA UPA-LMW; host or cells: human urine. To be noted: synthetic peptide-TBMB conjugate, pH 7.4, 25°C. The procedure:
(§1) Peptides with a free amine at the N-terminus and an amide at the C-terminus were chemically synthesized on a 50 mg to 1 g scale by solid phase chemistry (JPT Peptide Technologies, Berlin, Germany or GL Biochem Ltd., Shanghai, China). The crude peptides (1 mM) in 1 ml 5% v/v DMSO, 65% v/v 20 mM NH4HCO3, pH 8.0 and 30% v/v ACN, were reacted with TBMB (1.2 mM) for 1 hr at 30 °C. The reaction product was purified by preparative reversed-phase high performance liquid chromatography (HPLC) system (PrepLC 4000, Waters, Millford, MA, USA) and a Vydac C18 (218TP) column (22 x 250 mm) (Grace & Co., USA). At a flow rate of 20 ml/min, a linear gradient was applied with a mobile phase composed of eluant A (0.1% v/v aqueous trifluoroacetic acid (TFA) solution, 99.9 % v/v H2O) and eluant B (94.9% v/v ACN, 5% v/v H2O and 0.1 % v/v TF A). The purified peptides were freeze-dried and dissolved in H2O for activity measurements.
(§2) Residual activities were measured in buffer containing 10 mM Tris-Cl, pH 7.4, 150 mM NaCl, 10 mM MgCl2, 1mM CaCl2, 0.1% w/v BSA, 0.01% v/v Triton-X100 and 5% v/v DMSO in volume of […]. […] Absorption and fluorescence intensity were measured with a Spectramax absorption plate reader (recording at 410 nm; Molecular Devices, USA) and a Spectramax Gemini fluorescence plate reader (excitation at 355 nm, emission at 460 nm; Molecular Devices, USA), respectively. […]

Another series has as its system MDA-MB-231 cells. Description: Cell viability assay (CellTiter-Glo, ATP concentration). Format: cell-based, human. To be noted: 24 hrs, UK18 1-100 µM. As to the method:
MDA-MB-231 human breast adenocarcinoma cells (ATCC) were cultured in RPMI medium (RPMI-1640 containing 25 mM HEPES and L-glutamine; NEAA, 100X Stock, and 1 unit/ml penstrep, 20'000 units/ml penicillin and 20'000 units/ml streptomycin stock, Lonza, Visp, Switzerland) supplemented with 5% v/v fetal calf serum (FCS, Lonza) at 37 °C in a humidified 5% CO2/95% air atmosphere.
The effect of UK18 on the MDA-MB-231 cell viability was measured by using the CellTiter-Glo Luminescent Cell Viability Assay (Promega, Madison, WI, USA). The assay measures the number of viable cells in culture based on the ATP concentration. 200 µL of 2.0 x 10^5 MDA-MB-231 cells/ml in RPMI media (FCS-free) supplemented with 0.2% w/v BSA were inoculated at a density of 4.0 x 10^4 cells per well in 96-well opaque walled polystyrene plate tissue culture treated (Corning Incorporated, Corning, NY, USA) for 24 hrs at 37 °C in a humidified 5% CO2/95% air atmosphere. The culture supernatant was then removed and 100 µl of new RPMI media (FCS-free) supplemented with 0.2% w/v BSA containing different three-fold dilution concentrations of UK18 (1, 3.3, 10, 33 and 100 µM) were added to the cells and the plate incubated for 24 hrs at 37 °C in a humidified 5% CO2/95% air atmosphere. […] The luminescence signal was finally recorded using a Tristar LB 941 microplate reader (Berthold Technologies, Bad Wildbad, Germany). […]
Background: In ATP-based viability assays light output follows the ATP content of the culture.

The next series has as its target T2, Murine uPA (Mus musculus, UniProt P06869).
T2 construct: mouse uPA (MUPA-LMW, recombinantly produced in insect cells, 31 kDa); purchased Molecular Innovations, Novi, MI, USA MUPA-LMW; host or cells: insect cells
Nature of the series: Specificity determination of chemically synthesized inhibitors, residual protease activity. It is filed as biochemical. The note with it: murine uPA versus human uPA. The procedure: as §1, §2

Series [4] deals with T1, uPA. To be noted: literature, cited from earlier work.

Where two headings read alike, the source gives them in different places. Numbered stars: 1 amine (or outer) side, 2 acyl side, 3 side chain; on linkers, the order of the positions; unused ones are H or OH. Bridge positions count the residues as written; N and C are the ends. Ends that are not written are not given here. Peptide text beside a SMILES is read from it. TBMB = c1c(C[*:1])cc(C[*:3])cc1C[*:2]

As a reminder, the Ki is a measure of affinity in units of concentration, obtained from inhibition or displacement. By IC50 is commonly meant the concentration at which inhibition is half-maximal. A lower IC50 goes with higher potency.

T2 sequence (P06869 180-433 limits assumed): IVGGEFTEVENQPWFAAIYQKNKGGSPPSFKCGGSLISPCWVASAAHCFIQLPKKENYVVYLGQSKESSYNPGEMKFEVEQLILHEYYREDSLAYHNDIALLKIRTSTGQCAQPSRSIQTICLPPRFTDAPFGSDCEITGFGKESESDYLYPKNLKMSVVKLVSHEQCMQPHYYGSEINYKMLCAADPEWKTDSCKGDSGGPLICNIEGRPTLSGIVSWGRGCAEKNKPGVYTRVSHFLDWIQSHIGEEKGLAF
plasma kallikrein, sequence (P03952 391-638 limits assumed, species assumed): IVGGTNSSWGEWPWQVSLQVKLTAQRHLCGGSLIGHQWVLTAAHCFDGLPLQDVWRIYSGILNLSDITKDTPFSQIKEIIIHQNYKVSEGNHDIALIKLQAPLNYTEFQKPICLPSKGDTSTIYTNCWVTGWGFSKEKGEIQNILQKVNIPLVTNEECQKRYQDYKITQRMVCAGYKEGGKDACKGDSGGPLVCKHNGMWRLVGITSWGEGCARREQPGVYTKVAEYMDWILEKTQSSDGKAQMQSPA
plasma kallikrein, sequence (P03952 20-390 partner limits assumed, species assumed): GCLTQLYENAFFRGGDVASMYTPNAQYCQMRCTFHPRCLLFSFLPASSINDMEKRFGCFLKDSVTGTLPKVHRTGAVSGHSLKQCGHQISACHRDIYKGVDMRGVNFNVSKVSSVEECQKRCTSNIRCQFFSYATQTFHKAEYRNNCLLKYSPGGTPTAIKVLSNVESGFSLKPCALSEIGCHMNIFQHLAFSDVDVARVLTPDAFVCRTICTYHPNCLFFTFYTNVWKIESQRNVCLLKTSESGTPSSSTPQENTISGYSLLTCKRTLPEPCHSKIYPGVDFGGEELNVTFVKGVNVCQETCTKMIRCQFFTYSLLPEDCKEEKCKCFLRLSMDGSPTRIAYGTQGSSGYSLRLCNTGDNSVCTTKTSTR
tPA, sequence (P00750 36-562, species assumed): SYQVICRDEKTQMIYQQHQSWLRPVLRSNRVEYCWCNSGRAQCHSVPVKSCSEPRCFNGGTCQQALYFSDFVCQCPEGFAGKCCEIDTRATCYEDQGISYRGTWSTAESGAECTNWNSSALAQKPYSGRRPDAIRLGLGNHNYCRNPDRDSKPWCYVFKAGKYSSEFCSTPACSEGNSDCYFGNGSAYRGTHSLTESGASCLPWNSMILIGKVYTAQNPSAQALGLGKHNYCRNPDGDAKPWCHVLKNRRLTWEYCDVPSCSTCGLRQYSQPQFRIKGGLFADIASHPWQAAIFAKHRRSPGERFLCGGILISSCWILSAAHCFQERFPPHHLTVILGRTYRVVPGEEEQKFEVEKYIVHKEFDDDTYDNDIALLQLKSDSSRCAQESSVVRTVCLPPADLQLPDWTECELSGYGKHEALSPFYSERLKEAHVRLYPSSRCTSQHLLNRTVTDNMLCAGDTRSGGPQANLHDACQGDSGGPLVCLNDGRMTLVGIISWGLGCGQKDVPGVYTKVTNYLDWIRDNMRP

Turning to `N=C(N)c1ccc(CNC(=O)[C@H](CO)NC(=O)[C@@H](CO)NS(=O)(=O)Cc2ccccc2)cc1` [CJ-463, benzylsulfonyl-D-Ser-Ser-4-amidinobenzylamide], at uPA [1], the Ki was 20 nM. Moreover, the inhibition result in the series on factor Xa, on tPA, in the series on thrombin and on plasma kallikrein was “does not inhibit significantly” in each case. Also, in [2], the “primary tumour growth and metastasis formation” value was “reduce primary tumour growth and metastasis formation”.
Consider `CC(C)[C@@H]1NC(=O)[C@H](CCC(=O)O)NC(=O)[C@H](Cc2ccc(O)cc2)NC(=O)[C@H](CCCN=C(N)N)NC(=O)[C@H](CO)NC(=O)[C@@H](NC(=O)[C@H](C)N)CSCc2cc3cc(c2)CSC[C@H](NC(=O)[C@H](CC(=O)O)NC1=O)C(=O)N[C@@H](CCCN=C(N)N)C(=O)NCC(=O)N[C@@H](CCCN=C(N)N)C(=O)NCC(=O)N[C@@H](CO)C(=O)N[C@@H](C)C(=O)N[C@H](C(=O)NCC(N)=O)CSC3` [UK18] (H-ACSRYEVDCRGRGSACG-NH2; linker 2-9-16 via TBMB), for which, on uPA [3], the IC50 turned out to be 47.2 nM. In addition, the Ki on uPA [3] (corresponding to the IC50) came out at 30.1 nM. In addition, the cell viability result in the series with MDA-MB-231 cells is reported as “not toxic”.
On to `CC(C)[C@@H]1NC(=O)[C@H](CCC(=O)O)NC(=O)[C@H](Cc2ccc(O)cc2)NC(=O)[C@H](CCCNC(=N)N)NC(=O)[C@H](CO)NC(=O)[C@@H](NC(=O)[C@H](C)N)CSCc2cc3cc(c2)CSC[C@H](NC(=O)[C@H](CC(=O)O)NC1=O)C(=O)N[C@@H](CCCNC(=N)N)C(=O)NCC(=O)N[C@@H](CCCNC(=N)N)C(=O)NCC(=O)N[C@@H](CO)C(=O)N[C@@H](C)C(=O)N[C@H](C(=O)NCC(N)=O)CSC3` [UK18] (H-ACSRYEVDCRGRGSACG-NH2; linker 2-9-16 via TBMB), for which, on Murine uPA, the “Ki higher than the Ki of human uPA” value is reported as “around 1400 times”.
As for “CSWRGLENHRMC (cysteine pairing not given here) [upain-1]”, the Ki is 6700 nM in the series with uPA [4] (at pH 6.0) and 29900 nM with uPA [4] (at physiological pH).

Source of the values: EP2420255A2, “Polypeptide inhibitors of urokinase type plasminogen activator” (Ecole Polytechnique Federale De Lausanne (EPFL), priority 2010, dated 2012).
